Tests used:
Type in all cases: biochemical
[1] = target: PIM1 (proto-oncogene serine/threonine-protein kinase 1) (Homo sapiens, UniProt P11309); test: […] cell-free kinase screen, […] inhibition at […]
[2] = target: T1, MST2 (serine/threonine-protein kinase 3, STK3) (Homo sapiens, UniProt Q13188); test: […] cell-free kinase screen, […] inhibition at […]
T1 sequence (Q13188 1-491): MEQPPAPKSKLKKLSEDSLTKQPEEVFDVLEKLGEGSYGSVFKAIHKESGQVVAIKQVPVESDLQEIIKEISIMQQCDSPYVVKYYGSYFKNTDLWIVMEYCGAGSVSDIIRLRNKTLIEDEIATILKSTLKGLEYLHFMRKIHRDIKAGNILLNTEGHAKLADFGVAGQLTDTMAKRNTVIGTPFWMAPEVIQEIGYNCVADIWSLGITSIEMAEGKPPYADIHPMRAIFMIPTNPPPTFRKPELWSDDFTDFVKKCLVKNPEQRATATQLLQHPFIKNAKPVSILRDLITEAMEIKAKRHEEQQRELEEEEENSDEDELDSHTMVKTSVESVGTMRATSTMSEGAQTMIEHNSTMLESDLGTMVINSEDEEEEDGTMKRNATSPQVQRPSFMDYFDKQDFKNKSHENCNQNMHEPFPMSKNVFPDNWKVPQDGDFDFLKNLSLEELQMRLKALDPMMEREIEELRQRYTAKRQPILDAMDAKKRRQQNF

[3] = target: PIM3 (proto-oncogene serine/threonine-protein kinase 3) (Homo sapiens, UniProt Q86V86); test: […] cell-free kinase screen, […] inhibition at […]
GSK3β = target: T2, GSK3β (Homo sapiens, UniProt P49841); test: in vitro GSK3β kinase assay (IC50) and […] cell-free kinase screen
T2 construct: gene GSK3B
T2 sequence (P49841 whole entry): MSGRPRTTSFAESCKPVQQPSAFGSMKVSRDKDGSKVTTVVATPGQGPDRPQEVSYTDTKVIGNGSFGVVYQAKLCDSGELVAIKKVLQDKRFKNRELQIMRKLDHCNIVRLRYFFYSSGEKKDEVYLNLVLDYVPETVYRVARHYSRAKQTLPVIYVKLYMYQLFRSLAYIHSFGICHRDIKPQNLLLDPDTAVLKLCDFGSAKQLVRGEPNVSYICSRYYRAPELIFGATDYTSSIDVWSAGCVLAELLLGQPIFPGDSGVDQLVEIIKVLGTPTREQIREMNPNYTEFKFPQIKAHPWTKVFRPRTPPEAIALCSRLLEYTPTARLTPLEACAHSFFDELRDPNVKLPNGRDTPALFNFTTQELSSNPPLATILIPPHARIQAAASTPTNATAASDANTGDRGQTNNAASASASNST

PIM1 (proto-oncogene serine/threonine-protein kinase 1), sequence (P11309 whole entry): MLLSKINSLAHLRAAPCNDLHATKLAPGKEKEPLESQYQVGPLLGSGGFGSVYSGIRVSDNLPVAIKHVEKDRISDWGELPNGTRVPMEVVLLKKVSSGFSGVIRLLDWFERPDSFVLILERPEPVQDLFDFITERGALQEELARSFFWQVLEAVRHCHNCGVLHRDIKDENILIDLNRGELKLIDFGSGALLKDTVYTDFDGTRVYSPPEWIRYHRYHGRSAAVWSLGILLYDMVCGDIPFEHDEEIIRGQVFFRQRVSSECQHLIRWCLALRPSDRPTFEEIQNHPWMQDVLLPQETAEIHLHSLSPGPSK

Cn1cc(C2=C(c3coc4ccc(F)cc34)C(=O)NC2=O)c2cc3c(cc21)OCO3 [elraglusib]
inhibition at 5 µM [1]: > 50% | inhibition at 5 µM [2]: > 50% | inhibition at 5 µM [3]: > 50% | IC50 (GSK3β): 0.37 µM

From PMC10265916, “Elraglusib (formerly 9-ING-41) possesses potent anti-lymphoma properties which cannot be attributed to GSK3 inhibition” (Cell Communication and Signaling : CCS, 2023)
